# Measurements as given in patent publication US20260337209A1, “BORON-CAPPED CLATHROCHELATE AND MACROCYCLIC LIGANDS AND METAL COMPLEXES THEREOF” (UVic Industry Partnerships Inc., priority 2022, published 2026).
# Counter-ions that a name gives are not always drawn.
# How the values were obtained:
# Format in all cases: physicochemical
# [1] = CV (cyclic voltammetry) in dry CH3CN; conditions: 0.1 M NBu^n4^+PF6^−
# Procedure: Mauve powder. Yield: 92% (based on formula). Mp. dec. 315° C. ^1H NMR (300 MHz, dmso-d6, 298 K): δ 80.0 (1H relative int., v1/2=450 Hz), 77.9 (1H, v1/2=50 Hz), 53.1 (2H, v1/2=480 Hz), 46.8 (2H, v1/2=450 Hz), 39.4 (2H and 1H overlap, broad and sharp resonances), 21.8 and 19.5 (2H each, broad and overlapping), 13.0 (1H, v1/2=400 Hz), −2.0 (1H, v1/2=350 Hz), −4.2 (1H, v1/2=350 Hz), […] (2H, v1/2=450 Hz), −8.6 (1H, v1/2=40 Hz), −28.7 (1H, v1/2=50 Hz), −52.7 (1H, v1/2=450 Hz), −72.8 (v1/2=500 Hz). NMR (360 MHz, dmso-d6, 373 K): δ 18.49 (6H, br s, 4′- or 5′-pzH, v1/2=85 Hz), 17.00 (6H, br s, 3,5-pyH, v1/2=65 Hz), 7.88 (6H, br s, 4′- or 5′-pzH, v1/2=80 Hz), 4.18 (3H, br s, 4-pyH, v1/2=30 Hz), −4.25 (2H, br s, BH, v1/2=320 Hz). […] Fc/Fc^+); Co(NO3)2 under the same conditions: E1/2 (ox)=+1.8 V (vs. Fc/Fc^+). μeff=4.7 BM (Evans' method). A mononuclear 1:1 complex [9a]of cage [4a] with Co^2+ has been characterized by X-ray crystallography. A Co(OH2)3^2+ unit is bound up in the tris(pyrazolyl) cap.
# A blue-green powder was obtained from reaction of Cu(NO3)2(H2O)2.5 with [4a] in a 1:1 ratio. The ^1H NMR spectrum of this product is very similar to that of [11c′], obtained as one product in the reaction of Cu(O3SCF3)2 with [4a] in 3:1 ratio. […]
# [2] = solubility in solvents; conditions: for solubility in acetone: solvent acetone
# [3] = TGA (thermogravimetric analysis); conditions: [4a]·i-PrOH·2 H2O
# Procedure: Exemplary embodiments of the technology are illustrated by the following non-limiting Examples, in which the reactions were carried out under air or nitrogen as indicated using commercially available reagents as received unless otherwise specified. NMR spectra were recorded on Bruker AVANCE 300, 360 or 500 MHz instruments relative to residual solvent resonances (^1H, ^13C), an external reference (BF3·OEt2 for ^11B) or by indirect detection (^15N by HMBC, in ppm relative to NH3). Melting points were determined using an Omega Engineering Model 199 instrument and are uncorrected. Mass spectra were recorded on a Q-TOF II instrument by MicroMass using electrospray ionization. TGA were recorded between room temperature and 600° C. Elemental analysis for C, H and N were obtained by Canadian Microanalytical Services, Delta, B.C., Canada or Guelph Chemical Laboratories Ltd., Guelph, ON, Canada.
compound,measurement,setting,value
O=[N+]([O-])[O-].O=[N+]([O-])[O-].[Co+2] [Co(NO3)2],E1/2 (ox),[1]; 250 mV s^−1,+1.8 V (vs. Fc/Fc^+)
"CC1(C)c2ccn(n2)Bn2ccc(n2)C(C)(C)c2ccn(n2)Bn2ccc1n2 [8′a, Bis(2,2-dipyrazolylpropane)diborate dipotassium salt]",solubility in diethyl ether,"[2]; diethyl ether, relative to the corresponding cage [7′a]",notably less soluble
O=[N+]([O-])[O-].O=[N+]([O-])[O-].[Cu+2] [Cu(NO3)2],E1/2 (red),[1],−0.8 V (vs. Fc/Fc^+)
"c1cc2cc(c1)-c1ncn(n1)B1n3cnc(n3)-c3cccc(c3)-c3ncn(n3)B(n3cnc-2n3)n2cnc(n2)-c2cccc(c2)-c2ncn1n2 [7a, tris(2,6-di(1′,2′,4′-triazol-3′ yl)benzene)diborate dipotassium salt]",solubility in dmso-d6,"[2]; dmso-d6, mild heating",dissolved with mild heating in dmso-d6
same,solubility in acetone,[2],would not dissolve in acetone
"c1cc2nc(c1)-c1ccn(n1)B1n3ccc(n3)-c3cccc(n3)-c3ccn(n3)B(n3ccc-2n3)n2ccc(n2)-c2cccc(n2)-c2ccn1n2 [4a, Tris(2,6-pyrazolylpyridino)diborate dipotassium salt]",solubility in halocarbons,[2]; CH2Cl2 and CHCl3,slightly soluble
same,solubility in alcohols,"[2]; MeOH, EtOH, i-PrOH",slightly soluble
same,solubility in pure water,[2]; pure water,very limited solubility
same,solubility in DMSO,[2]; solvent DMSO,very soluble
same,solubility in THF,[2]; solvent THF,moderately soluble
same,solubility in acetone,[2],very soluble
same,solubility in acidic water,[2]; solvent acidic water,moderately soluble
same,solubility in ethyl acetate,[2]; solvent ethyl acetate,moderately soluble
same,onset of decomposition (TGA),[3],> 450 °C
"Tris(2,6-pyrazolyl-4-(4′-methoxybenzylthiolato)pyridino)diborate dipotassium salt [4t]",solubility in benzene,[2]; solvent benzene,somewhat soluble
